The source of these data is US9127040B2, “Regulation of sodium channels by PLUNC proteins” (The University of North Carolina at Chapel Hill, priority 2011, dated 2015).

One experiment concerns the target T1, βENaC (Homo sapiens, UniProt P51168).
T1 construct: expressed in transfected cells; host or cells: HEK293T cells (lysate)
T1 sequence (P51168 1-640): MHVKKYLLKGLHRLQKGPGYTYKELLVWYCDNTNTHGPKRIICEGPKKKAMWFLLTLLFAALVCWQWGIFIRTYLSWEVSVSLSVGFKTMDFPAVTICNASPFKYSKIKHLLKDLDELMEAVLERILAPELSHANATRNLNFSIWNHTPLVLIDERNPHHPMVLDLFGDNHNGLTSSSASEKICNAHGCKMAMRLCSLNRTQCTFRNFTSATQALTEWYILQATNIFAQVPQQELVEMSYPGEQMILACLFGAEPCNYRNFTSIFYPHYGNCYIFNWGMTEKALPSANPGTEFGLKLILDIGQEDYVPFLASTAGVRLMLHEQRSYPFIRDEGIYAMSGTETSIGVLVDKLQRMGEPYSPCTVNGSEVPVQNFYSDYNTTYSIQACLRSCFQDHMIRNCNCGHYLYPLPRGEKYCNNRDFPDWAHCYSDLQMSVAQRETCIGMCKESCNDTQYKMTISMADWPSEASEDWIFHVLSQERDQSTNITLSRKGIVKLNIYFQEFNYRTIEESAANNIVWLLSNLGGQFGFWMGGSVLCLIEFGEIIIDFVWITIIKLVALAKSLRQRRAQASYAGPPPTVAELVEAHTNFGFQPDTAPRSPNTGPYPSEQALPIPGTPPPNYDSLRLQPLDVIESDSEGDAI
In words: Biotinylated peptide pull-down of ENaC subunits from HEK293T cells. The experiment is classed as binding. Particulars: subunits individually expressed, biotinylated peptide. As for the experimental part:
HEK293T cells were transfected with double-tagged human ENaC subunits with HA and V5 epitopes at the N- and C-termini, respectively, in combination with wild-type untagged subunit cDNA. When all three ENaC subunits were expressed, 0.5 μg of each subunit were transfected per well. When expressed individually, 0.75 μg of the subunit were transfected per well. The transfected cells were lysed 24 h later using NP-40 buffer with 1× complete EDTA-free protease inhibitor (Roche, Basel, Switzerland). The lysate was centrifuged at 16,300×g for 15 minutes at 4° C. and the supernatant collected. Protein concentration was determined using the BCA assay and 500 μg of protein plus 0.25 mg peptide and 100 μL of neutravidin were added to a spin column and rotated end-over-end at 4° C. for 24 h (all ThermoFisher Scientific, Rockford, Ill., USA). Flow-through was collected by centrifugation at 1000×g for 30 s. The beads were then washed 5× with NP-40 buffer. Bound protein was eluted by boiling at 95° C. for 10 minutes in 75 μL of 2×LDS NuPAGE sample buffer with 1× sample reducing agent followed by centrifugation at 16,300×g for 2 minutes. Samples were resolved on 4-12% Bis-Tris gels in MES and transferred to a nitrocellulose membrane using iBlot, setting P3 for 8 min (Invitrogen, Carlsbad, Calif., USA). The membrane was probed using 1:1000 anti-V5 antibody (Invitrogen, Carlsbad, Calif., USA) overnight at 4° C. in 3% fish gelatin in TBS-T. The blot was then incubated for 1 h at room temperature with an ECL sheep anti-mouse IgG secondary antibody and detected by ECL reagent (ThermoFisher Scientific, Waltham, Mass., USA) or by incubation with a goat anti-mouse IRDye secondary antibody and analyzed by an Odyssey infrared imaging system (LI-COR Biosciences, Lincoln, Nebr., USA).
Peptide pull-down assays were performed as described above. Samples were eluted by the addition of 100 μL of 0.1 M sodium citrate, pH 5.5, 0.1% SDS to the beads and incubating at 100° C. for 2 minutes, followed by centrifugation at 16,300×g for 2 minutes. […]

Experiment [1] has as its target T2, ENaC (Homo sapiens, UniProt P37088+P51168+P51170).
T2 construct: measured the transepithelial voltage under thin film conditions in human bronchial epithelial cultures; endogenous in cells; host or cells: primary human bronchial epithelial cultures (normal or CF donors)
T2 sequence (P37088 1-669): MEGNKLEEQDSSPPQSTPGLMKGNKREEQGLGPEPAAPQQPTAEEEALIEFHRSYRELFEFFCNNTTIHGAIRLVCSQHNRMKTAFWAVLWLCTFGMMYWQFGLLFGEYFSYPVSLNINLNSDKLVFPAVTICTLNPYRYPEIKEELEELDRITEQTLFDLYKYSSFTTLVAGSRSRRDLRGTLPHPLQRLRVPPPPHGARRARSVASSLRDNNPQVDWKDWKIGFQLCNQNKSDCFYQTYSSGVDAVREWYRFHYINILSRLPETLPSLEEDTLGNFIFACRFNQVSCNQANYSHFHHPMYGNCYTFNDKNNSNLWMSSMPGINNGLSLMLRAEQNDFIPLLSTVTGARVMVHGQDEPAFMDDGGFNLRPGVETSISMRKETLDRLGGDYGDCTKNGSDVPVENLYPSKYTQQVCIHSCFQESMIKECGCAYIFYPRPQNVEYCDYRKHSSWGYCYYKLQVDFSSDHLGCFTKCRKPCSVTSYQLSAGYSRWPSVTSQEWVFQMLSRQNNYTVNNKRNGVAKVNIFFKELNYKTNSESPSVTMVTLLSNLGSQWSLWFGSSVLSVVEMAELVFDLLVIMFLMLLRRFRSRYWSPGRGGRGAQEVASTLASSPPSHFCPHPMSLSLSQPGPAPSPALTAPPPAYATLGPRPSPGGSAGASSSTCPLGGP
T2 sequence (P51168 1-640): T1 sequence (P51168 1-640)
T2 sequence (P51170 1-649): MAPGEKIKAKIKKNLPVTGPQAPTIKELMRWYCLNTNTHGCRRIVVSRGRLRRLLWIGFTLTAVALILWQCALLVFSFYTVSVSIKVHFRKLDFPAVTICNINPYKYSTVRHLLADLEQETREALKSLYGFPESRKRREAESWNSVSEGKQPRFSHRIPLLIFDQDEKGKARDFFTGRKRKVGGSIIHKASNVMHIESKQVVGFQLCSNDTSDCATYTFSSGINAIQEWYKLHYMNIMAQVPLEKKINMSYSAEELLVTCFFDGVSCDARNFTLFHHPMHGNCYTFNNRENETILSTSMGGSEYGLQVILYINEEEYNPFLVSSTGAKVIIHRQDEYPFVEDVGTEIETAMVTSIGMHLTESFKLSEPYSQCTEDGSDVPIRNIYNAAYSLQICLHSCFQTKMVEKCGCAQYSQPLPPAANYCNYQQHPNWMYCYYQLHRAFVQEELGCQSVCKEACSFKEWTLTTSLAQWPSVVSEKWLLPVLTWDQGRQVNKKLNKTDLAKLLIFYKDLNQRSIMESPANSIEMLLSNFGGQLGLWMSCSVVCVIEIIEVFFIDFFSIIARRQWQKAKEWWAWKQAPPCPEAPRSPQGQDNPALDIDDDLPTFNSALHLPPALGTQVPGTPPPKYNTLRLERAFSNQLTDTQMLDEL
In words: ASL height 6 h after exposure, alanine scan of S18. Type of experiment: cell-based. As for the experimental part:
To label the ASL, PBS containing 10 kDa Rhodamine dextran (0.2-2 mg/mL; Invitrogen, Carlsbad, Calif., USA) was added to HBEC mucosal surfaces as previously described (Tarran et al., Mol. Cell 8:149 (2001)). When added, peptides with or without 100 nM neutrophil elastase, 1 U/mL aprotinin, activated neutrophil supernatant (ANS) (Haynes et al., Am. J. Physiol. Heart Circ. Physiol. 294:H379 (2008)) or 10 μM sivelestat (Sigma-Aldrich, St Louis, Mo., USA) were added to the mucosal surface along with the Rhodamine dextran. Bumetanide (100 μM) was added to the serosal solution.
ASL height was measured 6 h after exposure to vehicle, control peptide, S18 or S18 with specific residues mutated to alanine as outlined in FIG. 31. […] NB, G1, G2 and A18 were not mutated. […] All n=6.

Experiment [2] concerns the target T2, ENaC. In words: Transepithelial voltage (PD), thin film conditions, human bronchial epithelial cultures. Type of experiment: cell-based. Also on record: reduction of transepithelial voltage: dose or concentration left out as unconfirmed. From the text:
Tissue procurement and cell culture: Cells were harvested by enzymatic digestion from human bronchial tissue as previously described under a protocol approved by the UNC School of Medicine IRB (Tarran et al., J. Gen. Physiol. 127:591 (2006)). Human excess donor lungs and excised recipient lungs were obtained at the time of lung transplantation from portions of main stem or […] bronchi and cells were harvested by enzymatic digestion. All preparations were maintained at an air-liquid interface in a modified bronchial epithelial medium and used 2-5 weeks after seeding on 12 mm T-Clear inserts (Corning Costar) coated with human placental type VI collagen (Sigma). Phosphate buffered saline (PBS) was used for washing human bronchial epithelial culture mucosal surfaces. HBECs were maintained at an air-liquid interface in a modified bronchial epithelial growth medium (BEGM) with 5% CO2 at 37° C. and used 2-5 weeks after seeding on 12-mm T-clear inserts (Corning-Costar, Corning, N.Y., USA) (Randell, Methods Mol. Biol. 742:285 (2011)).
A single-barreled potential difference-sensing electrode was placed in the airway surface liquid by micromanipulator and used in conjunction with a macroelectrode in the serosal solution to measure transepithelial voltage using a voltmeter (World Precision Instruments). […] Transepithelial resistance was routinely measured using the EVOM system (WPI) as previously described (Tarran et al., J. Gen. Physiol. 127:591 (2006)).

Experiment [3] concerns the target T2, ENaC. As to the kind of experiment: Transepithelial electrical resistance in human bronchial epithelial cultures. Particulars: 50 ng/ml SPLUNC1 30 min or amiloride 10 min; effects not additive. Type of experiment: cell-based. From the text: A single-barreled potential difference-sensing electrode was placed in the airway surface liquid by micromanipulator and used in conjunction with a macroelectrode in the serosal solution to measure transepithelial voltage using a voltmeter (World Precision Instruments). […] Transepithelial resistance was routinely measured using the EVOM system (WPI) as previously described ([…] et al., J. Gen. Physiol. 127:591 (2006)).

The next experiment relates to trypsin. As to the kind of experiment: Cell-free fluorogenic assay, trypsin cleavage of BGAR-MCA. The experiment is classed as biochemical. To be noted: 50 ng/ml rSPLUNC1 or 2 U/ml aprotinin; 1.0 or 0.3 U/ml trypsin. As for the experimental part: (§1) For cell-free assays, reactions were carried out in 50 μl Ringer in a 96 well plate format with 100 μM BGAR-MCA. To measure endogenous protease activity in human bronchial epithelial cultures, 30 μl Ringer with 100 μM BGAR-MCA were placed directly onto the mucosal surfaces of human bronchial epithelial cultures grown on 12 mm T-clear inserts and the cultures were assayed in 12 well plates.

The next experiment relates to serine proteases. As to the kind of experiment: Endogenous protease activity (BGAR-MCA cleavage) on mucosal surface of human bronchial epithelial cultures. The experiment is classed as cell-based. As for the experimental part:
as §1

The target of experiment [4] is T3, αENaC-eGFP and βENaC-mCherry (Homo sapiens, UniProt P37088+P51168).
T3 construct: expressed in transfected cells
As to the kind of experiment: Acceptor-photobleaching FRET between fluorescently tagged ENaC subunits. The experiment is classed as cell-based. Particulars: one hour of exposure. From the text:
Ai, cartoon of αENaC-eGFP and βENaC-mCherry under basal conditions (γENaC not shown). Aii We hypothesize that S18 binding to the extracellular loop of βENaC (1) induces a conformational change in ENaC which is reflected as altered intracellular FRET (2). This change may facilitate NEDD4-2-induced ubiquitination (3), leading to internalization of αβγENaC (4). […] In contrast, exposure to aprotinin had no effect. All n=8-10. C, Typical confocal images of HEK cells expressing αγENaC and βENaC-eGFP before and 1 h after 100 μM S18. Cell outlines are traced in white.
Since ENaC is regulated by NEDD4-2 binding to its C-termini, which leads to ubiquitination of its N-termini and internalization, we propose that S18 causes a conformational change in ENaC, leading to increased ubiquitination followed by internalization (FIG. 21A). As a first step towards understanding the mechanism of action of SPLUNC1, we performed FRET on fluorescently tagged ENaCs. […] Furthermore, βENaC-eGFP internalized upon S18 binding (FIG. 21C), consistent with our surface biotinylation data from oocytes.

Another experiment has as its system CF HBECs. Particulars: 8 h ASL height.

Experimental for CF HBECs: To label airway surface liquid, Ringer containing Texas Red-dextran (2 mg/ml; Invitrogen) was added to human bronchial epithelial culture mucosal surfaces. Perfluorocarbon was added mucosally to prevent evaporation of the airway surface liquid and the culture placed in a chamber containing 100 μl Ringer on the stage of a Leica SP5 confocal microscope with a 63× glycerol immersion objective. 5 points per culture were scanned and an average airway surface liquid height determined. For confocal microscopy human bronchial epithelial cultures were bathed serosally in a modified Ringer solution containing (mM): 116 NaCl, 10 NaHCO3, 5.1 KCl, 1.2 CaCl2, 1.2 MgCl2, 20 TES, 10 glucose, pH 7.4). At all other times, human bronchial epithelial cultures were maintained in a modified BEGM growth medium which contained 24 mM NaHCO3 gassed with 5% CO2.

For “ADGGLLLLNNPPPPQTVV (Control peptide sequence) [ABC, reference compound]”, in the experiment with βENaC, the “binding to βENaC (pull-down)” value was “No β-ENaC was observed in the elution”. For the same molecule, in the experiment with ENaC [1], the ASL height entry is listed as “no effect on ASL height”.

Take `N=C(N)NC(=O)c1nc(Cl)c(N)nc1N` [amiloride, reference compound]: the “reduction of transepithelial voltage” value at ENaC [2] (amiloride for 10 min (FIG. 4 legend), n=12) was determined as 54%. Moreover, at ENaC [3], the “increase of transepithelial electrical resistance” value is roughly 33%.

Turning to aprotinin [reference compound], on ENaC [2] (rSPLUNC1 vs aprotinin addition, effects not additive), the “rate of inhibition of the transepithelial voltage” value is on record as “identical rates”. In the experiment with trypsin, the “inhibition of trypsin cleavage of fluorogenic substrate BGAR-MCA” value is listed as roughly 100%. Moreover, in the experiment with serine proteases, the “BGAR-MCA cleavage on human bronchial epithelial mucosal surfaces” value is listed as “inhibited”. Also, the “FRET between αENaC-eGFP and βENaC-mCherry” value in experiment [4] was “no effect”. In addition, the “CF ASL hyperabsorption” value in the experiment on CF HBECs is recorded as “reduces CF ASL hyperabsorption”. In addition, the “CF ASL hyperabsorption in the presence of neutrophil elastase” value in the experiment with CF HBECs (neutrophil elastase) is “did not prevent neutrophil elastase from activating ENaC”.
